Patent US20030139446A1, “Preparation of pharmaceutical salts” (Schering Corporation, priority 2001, published 2003)
Read-outs that look alike come from different tables or passages of the source.

Settings: diastereomeric ratio 1,2 to 3,4 in solids 95:5

In the case of `O=C(O)c1ccccc1O` [Salicylate], the “stability remark for salt solids” value (salt prepared in EtOH) is reported as “stable” and the “stability remark for salt solids” value (salt prepared in iPrOAc) is reported as “stable”.
